Measured values from patent publication US20240043427A1 (Gilead Sciences, Inc., priority 2020, published 2024).

Legend:
[1] = target: T1, CD73 (Homo sapiens (Human), UniProt P21589); test: MDA-MB-231 Cell Based CD73 Activity Assay (DMEM); settings: MDA-MB-231-GFP cells, DMEM medium with 10% human plasma, 200 uM AMP
[2] = target: T1, CD73; format: biochemical; settings: 1 mM NaH2PO4 in enzyme buffer, CD73 0.3 nM, AMP 15 uM

T1 sequence (P21589 27-574): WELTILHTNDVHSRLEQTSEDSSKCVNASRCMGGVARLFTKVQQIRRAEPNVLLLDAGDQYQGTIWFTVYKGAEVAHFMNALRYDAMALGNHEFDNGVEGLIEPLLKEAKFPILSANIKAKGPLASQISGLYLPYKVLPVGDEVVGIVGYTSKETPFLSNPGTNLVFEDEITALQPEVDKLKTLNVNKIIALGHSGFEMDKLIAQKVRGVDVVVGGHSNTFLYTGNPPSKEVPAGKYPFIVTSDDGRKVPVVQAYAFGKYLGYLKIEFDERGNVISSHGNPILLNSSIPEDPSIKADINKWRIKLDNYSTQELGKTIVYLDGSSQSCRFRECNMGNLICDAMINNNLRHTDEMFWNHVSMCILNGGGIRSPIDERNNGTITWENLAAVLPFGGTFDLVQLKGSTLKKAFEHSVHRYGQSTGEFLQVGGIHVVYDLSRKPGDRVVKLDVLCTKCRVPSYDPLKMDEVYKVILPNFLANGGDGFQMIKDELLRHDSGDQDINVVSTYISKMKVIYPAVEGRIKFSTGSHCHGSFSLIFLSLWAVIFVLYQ

Q: How did the EC50 [1] turn out when `C[C@@H]1CN(c2cc(-c3c[nH]c(=O)[nH]c3=O)nn3ccnc23)CC1(F)F` [Example 517, (R)-5-(8-(3,3-difluoro-4-methylpyrrolidin-1-yl)imidazo[1,2-b]pyridazin-6-yl)pyrimidine-2,4(1H,3H)-dione] was run?
A: 21.4 nM

Q: What about the IC50 [2] of the same compound?
A: 5.23 nM

Q: Which results are given for `C[C@H]1CN(c2cc(-c3c[nH]c(=O)[nH]c3=O)nn3c(F)cnc23)CC1(F)F` [Example 518, (S)-5-(8-(3,3-difluoro-4-methylpyrrolidin-1-yl)-3-fluoroimidazo[1,2-b]pyridazin-6-yl)pyrimidine-2,4(1H,3H)-dione]?
A: EC50 [1]: 19.6 nM; IC50 [2]: 5.5 nM

Q: With `C[C@@H]1CN(c2cc(-c3c[nH]c(=O)[nH]c3=O)nn3c(F)cnc23)CC1(F)F` [Example 519, (R)-5-(8-(3,3-difluoro-4-methylpyrrolidin-1-yl)-3-fluoroimidazo[1,2-b]pyridazin-6-yl)pyrimidine-2,4(1H,3H)-dione] as the compound, how does the EC50 [1] read?
A: 18.3 nM

Q: And the IC50 [2]?
A: 6.58 nM

Q: What does the source list for `C[C@H]1CN(c2cc(-c3c[nH]c(=O)[nH]c3=O)nn3c(Cl)cnc23)CC1(F)F` [Example 520, (S)-5-(3-chloro-8-(3,3-difluoro-4-methylpyrrolidin-1-yl)imidazo[1,2-b]pyridazin-6-yl)pyrimidine-2,4(1H,3H)-dione]?
A: EC50 [1]: 421 nM; IC50 [2]: 43.8 nM

Q: `C[C@@H]1CN(c2cc(-c3c[nH]c(=O)[nH]c3=O)nn3c(Cl)cnc23)CC1(F)F` [Example 521, (R)-5-(3-chloro-8-(3,3-difluoro-4-methylpyrrolidin-1-yl)imidazo[1,2-b]pyridazin-6-yl)pyrimidine-2,4(1H,3H)-dione] was tested. Which EC50 [1] did it give?
A: 223 nM

Q: What about the IC50 [2] of the same compound?
A: 33.3 nM

Q: With `CC1(C)CN(c2cc(-c3c[nH]c(=O)[nH]c3=O)nn3c(Cl)cnc23)CC1(F)F` [Example 522, 5-(3-chloro-8-(3,3-difluoro-4,4-dimethylpyrrolidin-1-yl)imidazo[1,2-b]pyridazin-6-yl)pyrimidine-2,4(1H,3H)-dione] as the compound, how does the EC50 [1] read?
A: 23.6 nM

Q: What about the IC50 [2] of the same compound?
A: 1.26 nM

Q: `O=c1[nH]cc(-c2cc(N3CC(Oc4ccc(C(F)(F)F)cn4)C(F)(F)C3)c3nccn3n2)c(=O)[nH]1` (stereo not shown) [Example 523, 5-(8-(3,3-difluoro-4-((5-(trifluoromethyl)pyridin-2-yl)oxy)pyrrolidin-1-yl)imidazo[1,2-b]pyridazin-6-yl)pyrimidine-2,4(1H,3H)-dione] was tested. Which EC50 [1] did it give?
A: 3.96 nM

Q: What about the IC50 [2] of the same compound?
A: 1.92 nM

Q: For `O=c1[nH]cc(-c2cc(N3CC(OCC(F)F)C(F)(F)C3)c3nccn3n2)c(=O)[nH]1` (stereo not shown) [Example 524, 5-(8-(4-(2,2-difluoroethoxy)-3,3-difluoropyrrolidin-1-yl)imidazo[1,2-b]pyridazin-6-yl)pyrimidine-2,4(1H,3H)-dione], which EC50 [1] is on record?
A: 11 nM

Q: What about the IC50 [2] of the same compound?
A: 3.75 nM

Q: `CCOC(=O)OC1CN(c2cc(-c3c[nH]c(=O)[nH]c3=O)nn3ccnc23)CC1(F)F` (stereo not shown) [Example 525, 1-(6-(2,4-dioxo-1,2,3,4-tetrahydropyrimidin-5-yl)imidazo[1,2-b]pyridazin-8-yl)-4,4-difluoropyrrolidin-3-yl ethyl carbonate] was tested. Which EC50 [1] did it give?
A: 4.43 nM

Q: What about the IC50 [2] of the same compound?
A: 1.54 nM

Q: How did the EC50 [1] turn out when `CCNC(=O)OC1CN(c2cc(-c3c[nH]c(=O)[nH]c3=O)nn3ccnc23)CC1(F)F` (stereo not shown) [Example 526, 1-(6-(2,4-dioxo-1,2,3,4-tetrahydropyrimidin-5-yl)imidazo[1,2-b]pyridazin-8-yl)-4,4-difluoropyrrolidin-3-yl ethylcarbamate] was run?
A: 1.13 nM

Q: What about the IC50 [2] of the same compound?
A: 1.32 nM

Q: Which results are given for `O=c1[nH]cc(-c2cc(N3C[C@H](Oc4ccc(C(F)(F)F)cn4)C(F)(F)C3)c3nccn3n2)c(=O)[nH]1` [Example 529, (S)-5-(8-(3,3-difluoro-4-((5-(trifluoromethyl)pyridin-2-yl)oxy)pyrrolidin-1-yl)imidazo[1,2-b]pyridazin-6-yl)pyrimidine-2,4(1H,3H)-dione]?
A: EC50 [1]: 2.25 nM; IC50 [2]: 0.7 nM
